According to ChEMBL document CHEMBL1130043, “Chemometric methodologies in a quantitative structure-activity relationship study: the antibacterial activity of 6-aminoquinolones” (1997):

Key:
Type in all cases: functional
[1] = test system: Staphylococcus aureus; test: Antibacterial activity against Staphylococcus aureus MPR 5 (Gram positive) strain.
[2] = test system: Staphylococcus epidermidis; test: Antibacterial activity against Staphylococcus epidermidis HCF Berset C (Gram positive) strain.
[3] = test system: Staphylococcus epidermidis; test: The compound was tested in vitro for antibacterial activity against Staphylococcus epidermidis CPHL A2 (Gram positive) strain.
[4] = test system: Klebsiella pneumoniae; test: Antibacterial activity against Klebsiella pneumoniae ATCC 10031 (Gram negative) strain.
[5] = test system: Acinetobacter calcoaceticus; test: Antibacterial activity against Acinetobacter calcoaceticus OSMPV 113 (Gram negative) strain.
[6] = test system: Enterococcus faecalis; test: Antibacterial activity against Streptococcus faecalis LEP Br (Gram positive) strain.
[7] = test system: Escherichia coli; test: Antibacterial activity against Escherichia coli ATCC 8739(Gram negative) strain.
[8] = test system: Pseudomonas aeruginosa; test: Antibacterial activity against Pseudomonas aeruginosa ATCC 9027(Gram negative) strain.
[9] = test system: Staphylococcus aureus; test: Antibacterial activity against Staphylococcus aureus ATCC 6538 (Gram positive) strain.
[10] = test system: Shigella; test: Antibacterial activity against Shigella enteritidis (Gram negative) strain.
[11] = test system: Escherichia coli; test: Antibacterial activity against Escherichia coli ISF 432(Gram negative) strain.
[12] = test system: Providencia stuartii; test: Antibacterial activity against Providencia stuartii CNUR 5(Gram negative) strain.
[13] = test system: Enterobacter cloacae; test: Antibacterial activity against Enterobacter cloacae OMNFI 174 (Gram negative) strain.
[14] = test system: Staphylococcus epidermidis; test: The compound was tested in vitro for antibacterial activity against Staphylococcus epidermidis CPHL A2 (Gram positive) strain
[15] = test system: Acinetobacter calcoaceticus; test: The compound was tested for in vitro antibacterial activity against Acinetobacter calcoaceticus OSMPV 113(Gram negative) strain.
[16] = test system: Staphylococcus epidermidis; test: Antibacterial activity against Staphylococcus epidermidis CPHL A2 (Gram positive) strain, activity is expressed as log2MIC.
[17] = test system: Pseudomonas aeruginosa; test: The compound was tested for in vitro antibacterial activity against Pseudomonas aeruginosa ATCC 9027(Gram negative) strain.
[18] = test system: Staphylococcus aureus; test: The compound was tested for in vitro antibacterial activity against Staphylococcus aureus MPR 5 (Gram positive) strain.
[19] = test system: Staphylococcus aureus; test: The compound was tested for in vitro antibacterial activity against Staphylococcus aureus ATCC 6538 (Gram positive) strain.
[20] = test system: Escherichia coli; test: The compound was tested for in vitro antibacterial activity against Escherichia coli ATCC 8739 (Gram negative) strain.
[21] = test system: Acinetobacter calcoaceticus; test: The compound was tested for in vitro antibacterial activity against Acinetobacter calcoaceticus OSMPV 113 (Gram negative) strain.
[22] = test system: Pseudomonas aeruginosa; test: The compound was tested for in vitro antibacterial activity against Pseudomonas aeruginosa ATCC 9027 (Gram negative) strain.
[23] = test system: Escherichia coli; test: The compound was tested for in vitro antibacterial activity against Escherichia coli ISF 432 (Gram negative) strain.

Structure (SMILES)	Log2 MIC [2]	Log2 MIC [4]	Log2 MIC [5]	Log2 MIC [6]	Log2 MIC [8]	Log2 MIC [10]	Log2 MIC [12]	Log2 MIC [13]	Log2 MIC [16]	other results
Nc1cc2c(=O)c(C(=O)O)cn(C3CC3)c2cc1Cl	1	6	0	0	0	3	1	3		Log2 MIC [1]: 0; Log2 MIC [3]: 0; Log2 MIC [7]: 6; Log2 MIC [9]: 0; Log2 MIC [11]: 6
O=C(O)c1cn(C2CC2)c2cc(N3CCNCC3)c(F)cc2c1=O [CIPROFLOXACIN]		12	11	8	11		11		11	Log2 MIC [14]: 11; Log2 MIC [15]: 11; Log2 MIC [17]: 11
CN1CCN(c2c(F)cc3c(=O)c(C(=O)O)cn4c3c2SCC4)CC1 [RUFLOXACIN]	7	9		5		10	6	8	8	Log2 MIC [18]: 8; Log2 MIC [19]: 8; Log2 MIC [20]: 9; Log2 MIC [21]: 7; Log2 MIC [22]: 5; Log2 MIC [23]: 9
